A value given as a limit tells only on which side of the number the result lay.

This experiment concerns the target T1, Dual specificity protein phosphatase 6 (Rattus norvegicus, UniProt Q64346).
T1 sequence (Q64346 whole entry): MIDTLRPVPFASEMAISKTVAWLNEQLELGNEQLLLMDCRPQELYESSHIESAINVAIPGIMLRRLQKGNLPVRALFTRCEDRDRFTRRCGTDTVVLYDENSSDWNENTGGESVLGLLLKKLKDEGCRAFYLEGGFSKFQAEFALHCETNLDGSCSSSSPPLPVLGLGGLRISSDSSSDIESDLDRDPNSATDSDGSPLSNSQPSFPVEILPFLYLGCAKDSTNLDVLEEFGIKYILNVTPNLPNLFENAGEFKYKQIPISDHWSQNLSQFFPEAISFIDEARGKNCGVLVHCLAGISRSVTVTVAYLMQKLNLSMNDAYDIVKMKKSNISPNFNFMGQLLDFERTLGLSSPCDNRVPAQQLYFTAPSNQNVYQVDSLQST
The experiment can be described thus: reproducibility of MKP-3 inhibition curves – biochemical, rat DUSP6, reproducibility testing, probe assessment, dose response (AID 566).
On to `Cc1cccc(N2CCN(C(=O)Cc3c(C(=O)O)[nH]c4ccc(Cl)cc34)CC2)c1C` [5-chloranyl-3-[2-[4-(2,3-dimethylphenyl)piperazin-1-yl]-2-oxidanylidene-ethyl]-1H-indole-2-carboxylic acid], for which the IC50 is above 50 µM.
Take `CCCSc1nnc(NC(=O)c2sc3nc(-c4cccs4)ccc3c2N)s1` [3-amino-N-(5-propylsulfanyl-1,3,4-thiadiazol-2-yl)-6-thiophen-2-ylthieno[2,3-b]pyridine-2-carboxamide]: the IC50 is above 50 µM.
`Cc1ccc(C)n1-c1cccc(C(=O)O)c1` showed an IC50 above 50 µM.
Next, `COc1ccc2noc3c2c1C(=O)c1ccccc1-3` [MLS000106874]: 22.6 µM.
The figure for `COc1ccc(-n2c(NC(=O)c3ccco3)c(C#N)c3nc4ccccc4nc32)cc1` [MLS000079925] is 14.2 µM; for `Cc1ccc(-c2csc(NC(=O)c3ccno3)n2)cc1` [MLS000081820] it is above 50 µM.
`[O-]/[N+](=C/c1ccc(F)cc1)c1ccccc1` [(E)-(4-fluorobenzylidene)(phenyl)azane oxide] had an IC50 above 50 µM.
`CCn1nc(-c2cccs2)nc2c(=O)n(C)c(=O)nc1-2` [1-ethyl-6-methyl-3-thiophen-2-yl-pyrimido[5,4-e][1,2,4]triazine-5,7-dione]: the IC50 was 0.445 µM.
`COc1cc(/C=C(/C#N)c2ccc(F)cc2)ccc1OCc1ccc(C(=O)O)o1` [5-({4-[2-cyano-2-(4-fluorophenyl)vinyl]-2-methoxyphenoxy}methyl)-2-furoic acid] had an IC50 above 50 µM.
Molecule `CCCCn1c(NC(=O)c2ccccc2)c(C#N)c2nc3ccccc3nc21` [SMR000060333] registered an IC50 of 18.4 µM.
As to `O=C1C=Cc2ccccc2C1=O` [1,2-dihydronaphthalene-1,2-dione], the IC50 was above 50 µM.
With `Cc1nc2c(C(=O)NCCC3=CCCCC3)c[nH]n2c(=O)c1Cl` [6-chloro-N-(2-cyclohex-1-en-1-ylethyl)-7-hydroxy-5-methylpyrazolo[1,5-a]pyrimidine-3-carboxamide], the IC50 was above 50 µM.
The molecule `CCc1ccc(NC(=O)CSc2nc3ccccc3c(=O)n2CCN2CCOCC2)cc1` [MLS000095236] returned an IC50 above 50 µM.
In turn, `CC(C)Cn1c(N)c(C(=O)COC(=O)c2cc(-c3ccco3)nc3ccccc23)c(=O)n(C)c1=O` [2-(2-furanyl)-4-quinolinecarboxylic acid [2-[4-amino-1-methyl-3-(2-methylpropyl)-2,6-dioxo-5-pyrimidinyl]-2-oxoethyl] ester] registered an IC50 above 50 µM.
The molecule `CC(C)Sc1nc2sc3c(c2c2nnc(SCC(=O)NCc4ccco4)n12)CCCC3` [MLS000082957] had an IC50 above 50 µM.
Molecule `Nc1nc2c(s1)CCc1c-2cnn1-c1ccccc1` [MLS000085948] gave an IC50 above 50 µM.
In turn, `O=C1Nc2ccccc2SC(c2ccccc2)C1O` (configuration not stated) [3-hydroxy-2-phenyl-2,3-dihydro-1,5-benzothiazepin-4(5H)-one] gave an IC50 above 50 µM.
The molecule `Cc1cc(NC(=O)c2ccc(S(=O)(=O)N3CCCC3)cc2)nc2c1c(=O)oc1ccccc12` [MLS000091355] came in with an IC50 above 50 µM.
On to `CCOc1ccc(-c2cc3nc(C4CCN(C(=O)OC(C)(C)C)CC4)c(C(=O)O)cn3n2)cc1` [2-(4-ethoxyphenyl)-5-[1-[(2-methylpropan-2-yl)oxy-oxomethyl]-4-piperidinyl]-6-pyrazolo[1,5-a]pyrimidinecarboxylic acid], for which the IC50 was above 50 µM.
On to `N#Cc1c(NC(=O)c2ccc(Br)o2)n(-c2ccccc2)c2nc3ccccc3nc12` [5-bromanyl-N-(3-cyano-1-phenyl-pyrrolo[3,2-b]quinoxalin-2-yl)furan-2-carboxamide], for which it took 15.5 µM to reach half-maximal inhibition (IC50).
The figure for `CCOC(=O)c1ccc2c(c1)C1C=CCC1C(C(=O)O)N2` (configuration not stated) [MLS-0025126.0001] is above 50 µM; for `O=C(Nc1ccc2nc(-c3ccco3)c(-c3ccco3)nc2c1)N1CCCCCC1` it is above 50 µM; for `CC(=O)[C@@H]1[C@@H]2C(=O)N(c3ccc(F)c(Cl)c3)C(=O)[C@@H]2C2c3ccccc3C=CN21` (some centres not stated) [MLS000040594] it is 47.1 µM.
In the case of `[O-]/[N+](=C\c1ccc(OC(F)F)cc1)c1ccccc1` [1-[4-(difluoromethoxy)phenyl]-N-phenylmethanimine oxide], the half-maximal inhibitory concentration (IC50) is above 50 µM.
`COc1ccc(Cn2c(C)nc3c(c2=O)c2nc4ccccc4nc2n3Cc2ccco2)cc1` [MLS000079944]: the half-inhibitory concentration (IC50) was above 50 µM.
The figure for `CCCCCC#CCC#CCC#CCC#CCCCC(=O)O` is above 50 µM; for `CCn1nc(-c2ccccc2)nc2c(=O)n(C)c(=O)nc1-2` [1-Ethyl-6-methyl-3-phenyl-1H-pyrimido[5,4-e][1,2,4]triazine-5,7-dione] it is 0.568 µM.
`N#Cc1c(N)sc(=S)c2c1CCN(Cc1ccccc1)C2` [3-Amino-7-benzyl-1-thioxo-5,6,7,8-tetrahydro-1H-thiopyrano[3,4-c]pyridine-4-carbonitrile] returned an IC50 of 2.08 µM.
Next, `N#Cc1c(N2CCCC2)nc(N)c2c(N)nc(N3CCCC3)cc12` [SMR000061605]: 3.43 µM; `Cn1ncnc2c(=O)n(C)c(=O)nc1-2`: 0.535 µM; `CCOc1ccc2noc3c2c1C(=O)c1ccccc1-3` [MLS000106837]: above 50 µM.
Next, `O=C(Nc1ccccc1)c1ccc2nc(-c3ccco3)c(-c3ccco3)nc2c1` [2,3-di-2-furyl-N-phenyl-6-quinoxalinecarboxamide]: above 50 µM; `O=C1C=C(NCc2ccc(Cl)c(Cl)c2)CC1` [3-[(3,4-dichlorobenzyl)amino]cyclopent-2-en-1-one]: above 50 µM; `COC(=O)c1ccccc1NC(=O)CN1C(=O)C2CCCN2c2ncc(Cl)cc21` (configuration not stated) [MLS000094302]: above 50 µM.
`CCn1c(SCC(=O)Nc2ccc3c(c2)c2ccccc2n3CC)nnc1-c1ccco1` [MLS000050867] came in with an IC50 above 50 µM.
In turn, `Cc1cccc(NC(=O)c2cc(NC(=O)C3CCCCC3C(=O)O)ccc2N2CCCCC2)c1` (configuration not stated) [2-({[3-{[(3-methylphenyl)amino]carbonyl}-4-(1-piperidinyl)phenyl]amino}carbonyl)cyclohexanecarboxylic acid] had an IC50 above 50 µM.
With `COc1ccc(-c2cc3nc(C4CCN(C(=O)OC(C)(C)C)CC4)c(C(=O)O)cn3n2)cc1` [2-(4-methoxyphenyl)-5-[1-[(2-methylpropan-2-yl)oxy-oxomethyl]-4-piperidinyl]-6-pyrazolo[1,5-a]pyrimidinecarboxylic acid], the IC50 is above 50 µM.
